Patent publication US20190269626A1, “Hair Protection Effect of Vanillyl Alkyl Ether and the Application thereof” (CORUM INC., priority 2018, published 2019)

How the values were obtained:
ROS generation in HFDPC = test: ROS generation with/without pollutant in HFDPC; format: cell-based, human; settings: for ROS generation, pollutant-stimulated condition: pollutant-triggered; for ROS generation, basal condition: without pollutant (basal)
Description: FIG. 4A to FIG. 4B respectively presents with/without pollutant-triggered ROS generation on HFDPC by VBE, and CAP (capsaicin). […] Hair follicle is a mini-organ of the skin which contains dermal papilla cells (DPC) in the bottom site surrounded with matrix cells (keratinocytes) and melanocytes. DPC play an important role to regulate matrix cell proliferation, differentiation and apoptosis during hair cycles, and matrix cells are responsible for forming the major structures of the hair shaft. In the above examples, we established an in vitro model to investigate hair loss mechanism caused by air pollution. Based on our data, SRM1649b (urban dust) PM2.5 is able to activate AhR pathway, enhance ROS generation, up-regulate gene expression of alopecia-related factors (TGF-β2, TNF-α and PTGS2) and stimulate inflammatory cytokines (IL-6, IL-8, and GM-CSF) in human hair follicle dermal papilla cells. […] The mechanism of air pollution induced hair loss is illustrated in FIG. 5.

[1] = system: PMA-induced inflammatory cytokines (IL-6 and IL-8) in HFDPC (human follicle dermal papilla cells); test: PMA-induced inflammatory cytokines (IL-6 and IL-8) in HFDPC; format: cell-based
Description: Still another example of this embodiment is application of VBE on decreasing PMA-induced inflammation (IL-6 and IL-8). […] Capsaicin, nonivamide, and minoxidil are effectless to PMA-induced IL-6, and IL-8.

[2] = system: LPS-induced inflammatory cytokines (IL-6 and IL-8) in macrophages; test: LPS-induced inflammatory cytokines (IL-6 and IL-8) in macrophages; format: cell-based
Description: One preferred example of this embodiment is application of VBE on decreasing LPS-induced inflammation (IL-6, and IL-8).

[3] = system: hair loss related genes expression (CYP1B1, TGF-β2, and TNF-α) in HFDPC; test: Pollutant-induced hair loss related genes expression in HFDPC; format: cell-based, human
Description: Still another example of this embodiment is application of VBE on decreasing pollutant-induced hair loss related genes expression (CYP1B1, TGF-β2, and TNF-α) on HFDPC. FIG. 3 presents pollutant-induced hair loss related genes expression (CYP1B1, TGF-β2, and TNF-α) by VBE, and DMF. DMF is 3′,4′-dimethoxyflavone, and is a AhR (aryl hydrocarbon receptor) antagonist. Pollutants usually generate damages though activating the transcription factor AhR.
(§1) FIG. 5 presents how to improve hair loss of human hair follicle dermal papilla cells with VBE according to the above examples. Hair follicle is a mini-organ of the skin which contains dermal papilla cells (DPC) in the bottom site surrounded with matrix cells (keratinocytes) and melanocytes. DPC play an important role to regulate matrix cell proliferation, differentiation and apoptosis during hair cycles, and matrix cells are responsible for forming the major structures of the hair shaft. In the above examples, we established an in vitro model to investigate hair loss mechanism caused by air pollution. Based on our data, SRM1649b (urban dust) PM2.5 is able to activate AhR pathway, enhance ROS generation, up-regulate gene expression of alopecia-related factors (TGF-β2, TNF-α and PTGS2) and stimulate inflammatory cytokines (IL-6, IL-8, and GM-CSF) in human hair follicle dermal papilla cells. […] The mechanism of air pollution induced hair loss is illustrated in FIG. 5.

[4] = system: anagen hairs and telogen hairs; test: Clinical evaluation of VBE versus placebo, phototrichogram hair growth cycle analysis; format: in vivo, human; settings: topical once a day for 84 days, half-head versus placebo, subjects with androgenetic alopecia
Protocol: Another example of this embodiment is clinical evaluation of the effect of VBE versus placebo in the male and female subjects after repeated application of 84 days through. The clinical test is finished by Spincontrol, France. The evaluation was performed using phototrichogram for hair growth cycle analysis. 11 healthy subjects from 25 to 49 years with a chronic hair loss/alopecia of androgenetic origin were selected for this study.

5-alpha reductase = 5-alpha reductase activity: DHT/Testosterone ratio in NHEK with [14C] testosterone; format: cell-based, human
[5] = system: AhR pathway in human hair follicle dermal papilla cells; test: Air pollution (SRM1649b urban dust PM2.5) in vitro hair loss model in HFDPC: AhR activity and GM-CSF; format: cell-based
Description: as §1, with “Hair” for “FIG. 5 presents how to improve hair loss of human hair follicle dermal papilla cells with VBE according to the above examples. Hair”

Row | pollutant-induced CYP1B1 gene expression [3] | pollutant-induced TGF-β2 gene expression [3] | pollutant-induced TNF-α gene expression [3] | SMILES | ROS generation, pollutant-stimulated condition (ROS generation in HFDPC) | ROS generation, basal condition (ROS generation in HFDPC) | PMA-induced IL-6 [1] | PMA-induced IL-8 [1] | LPS-induced IL-6 [2] | LPS-induced IL-8 [2] | other results
1 |  |  |  | COc1cc(CNC(=O)CCCC/C=C/C(C)C)ccc1O [Capsaicin] | no effect | no effect | no effect | no effect | decreased | decreased | 
2 | reducing | reducing | reducing | COc1ccc(-c2cc(=O)c3ccccc3o2)cc1OC [DMF, 3′,4′-dimethoxyflavone] |  |  |  |  |  |  | 
3 |  |  |  | Nc1cc(N2CCCCC2)nc(N)[n+]1[O-] [Minoxidil] |  |  | no effect | no effect |  |  | 
4 |  |  |  | CCCCCCCCC(=O)NCc1ccc(O)c(OC)c1 [Nonivamide] |  |  | no effect | no effect | decreased | decreased | 
5 | reduce | reduce | reduce | CCCCOCc1ccc(O)c(OC)c1 [VBE, vanillyl butyl ether] | decreased | decreased | decrease | decrease | decrease | decrease | Anagen (growing) hair [4]: increased; Telogen (resting or shedding) hair [4]: reduced; enhancement of ratio of Anagen to Telogen [4]: 6%; DHT/Testosterone ratio compared to control (5-alpha reductase; 50 μg/ml): 64%; DHT/Testosterone ratio, dose dependence (5-alpha reductase; 1.25 to 50 μg/ml): decreases DHT/Testosterone ratio in a dose dependent manner; AhR activity [5]: attenuating; GM-CSF production [5]: attenuating
6 |  |  |  | CC(C)(C)NC(=O)[C@H]1CC[C@H]2[C@@H]3CC[C@H]4NC(=O)C=C[C@]4(C)[C@H]3CC[C@]12C [finasteride] |  |  |  |  |  |  | DHT/testosterone ratio compared to the control condition (5-alpha reductase; finasteride reference): 1%
